In ChEMBL document CHEMBL1201862, “PubChem BioAssay data set” (2004):
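Five concentrations, 48 hours, 96-well plates. GI50 is the concentration that inhibits growth by half.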 The source made the active and inactive calls. No stated cut-off is given here; in the data, active = GI50 up to about 1.1 µM and inactive = higher.

Tests used:
Assay in all cases: growth of human tumour cells (NCI), 48 h
OVCAR-5 = tested on: OVCAR-5
SK-MEL-2 = tested on: SK-MEL-2
SF-539 = tested on: SF-539
SK-MEL-5 = tested on: SK-MEL-5
ACHN = tested on: ACHN
HCC 2998 = tested on: HCC 2998
SF-295 = tested on: SF-295
NCI-H460 = tested on: NCI-H460
CAKI-1 = tested on: CAKI-1
DU-145 = tested on: DU-145
KM12 = tested on: KM12
LOX IMVI = tested on: LOX IMVI
HL-60 = tested on: HL-60
NCI-H23 = tested on: NCI-H23
786-0 = tested on: 786-0
OVCAR-8 = tested on: OVCAR-8
U-251 = tested on: U-251
CCRF-CEM = tested on: CCRF-CEM
NCI-H522 = tested on: NCI-H522
HCT-15 = tested on: HCT-15

| SMILES | GI50 (OVCAR-5) | GI50 (SK-MEL-2) | GI50 (SF-539) | GI50 (SK-MEL-5) | GI50 (ACHN) | GI50 (HCC 2998) | GI50 (SF-295) | GI50 (NCI-H460) | GI50 (CAKI-1) | GI50 (DU-145) | GI50 (KM12) | GI50 (LOX IMVI) | GI50 (HL-60) | GI50 (NCI-H23) | GI50 (786-0) | GI50 (OVCAR-8) | GI50 (U-251) | GI50 (CCRF-CEM) | GI50 (NCI-H522) | GI50 (HCT-15) |
| --- | --- | --- | --- | --- | --- | --- | --- | --- | --- | --- | --- | --- | --- | --- | --- | --- | --- | --- | --- | --- |
| Oc1ccc(/N=N/c2ccc(Cl)cc2)cc1 | 17.4 µM (inactive) | 14.2 µM (inactive) | 18.4 µM (inactive) | 11.7 µM (inactive) | 12.9 µM (inactive) | 15.7 µM (inactive) | 16.4 µM (inactive) | 16.9 µM (inactive) | 14.4 µM (inactive) | 16.4 µM (inactive) | 13 µM (inactive) | 11.9 µM (inactive) | 4.38 µM (inactive) | 16.4 µM (inactive) | 17.3 µM (inactive) | 16.6 µM (inactive) | 15.4 µM (inactive) | 4.63 µM (inactive) | 11.6 µM (inactive) | 14.7 µM |
| COc1cc(-c2oc3c(OC)c(O)c(OC)c(O)c3c(=O)c2OC)cc(OC)c1OC | > 100 µM (inactive) | 77.1 µM (inactive) | 74.3 µM (inactive) | 14 µM (inactive) | 48.3 µM (inactive) | 52.4 µM (inactive) | > 100 µM (inactive) | 39 µM (inactive) | 42.8 µM (inactive) | > 100 µM (inactive) | > 100 µM (inactive) | 35.4 µM (inactive) | 41 µM (inactive) | > 100 µM (inactive) | 32.4 µM (inactive) | 53.7 µM (inactive) | 47.6 µM (inactive) | 47.9 µM (inactive) | 17.4 µM (inactive) | 41.7 µM |
| COC(=O)c1sc2nc(Nc3ccccc3)/c(=N\c3ccccc3)sc2c1C | > 100 µM (inactive) | 48.6 µM (inactive) | 51.9 µM (inactive) | 88.5 µM (inactive) | 32.7 µM (inactive) | > 100 µM (inactive) | 51.4 µM (inactive) | 45.4 µM (inactive) | 58.6 µM (inactive) | > 100 µM (inactive) | > 100 µM (inactive) | > 100 µM (inactive) | > 100 µM (inactive) | 94.4 µM (inactive) | 34.8 µM (inactive) | 64.1 µM (inactive) | 48.6 µM (inactive) | > 100 µM (inactive) | 30.3 µM (inactive) | > 100 µM |
| COc1ccc(C2C3=C(COC3=O)Oc3cc4c(cc32)OCO4)cc1OC (stereo not given) | 8.97 µM (inactive) | 0.679 µM (active) | 0.547 µM (active) | 0.489 µM (active) | 1.82 µM (inactive) | 0.614 µM (active) | 0.716 µM (active) | 0.547 µM (active) | 2.82 µM (inactive) | 1.81 µM (inactive) | 0.301 µM (active) | 0.65 µM (active) | 0.208 µM (active) | 3.94 µM (inactive) | 1.04 µM (active) | 4.05 µM (inactive) | 0.785 µM (active) | 0.428 µM (active) | 0.437 µM (active) | 0.397 µM |
| N#Cc1c(-c2ccc(Cl)cc2)cc(-c2ccc(Nc3ccnc4cc(Cl)ccc34)cc2)[nH]c1=O | > 61.7 µM (inactive) | 31.4 µM (inactive) | > 95.7 µM (inactive) | > 100 µM (inactive) | 32 µM (inactive) | > 100 µM (inactive) | 16.6 µM (inactive) | > 100 µM (inactive) | > 100 µM (inactive) | 99.3 µM (inactive) | > 61 µM (inactive) | 31.6 µM (inactive) | > 100 µM (inactive) | 24.7 µM (inactive) | 17.6 µM (inactive) | > 100 µM (inactive) | 15.5 µM (inactive) | 16 µM (inactive) | > 38.6 µM (inactive) | > 100 µM |
| CC(=O)OCC12C(OC(C)=O)C[C@@H](C)C3(CC(c4ccoc4)OC3=O)C1CCC(OC(C)=O)C21CO1 (stereo not given in full) | > 100 µM (inactive) | > 100 µM (inactive) | > 100 µM (inactive) | > 100 µM (inactive) | > 100 µM (inactive) | > 100 µM (inactive) | > 100 µM (inactive) | > 100 µM (inactive) | > 100 µM (inactive) | > 100 µM (inactive) | > 100 µM (inactive) | > 100 µM (inactive) | > 100 µM (inactive) | > 100 µM (inactive) | > 100 µM (inactive) | > 100 µM (inactive) | > 100 µM (inactive) | > 100 µM (inactive) | > 100 µM (inactive) | > 100 µM |
| COc1cccc2c(Nc3ccc(S(=O)(=O)NC(C)=O)cc3)c3ccc([N+](=O)[O-])cc3nc12 | > 66.5 µM (inactive) | 49.9 µM (inactive) | 60.5 µM (inactive) | 22.7 µM (inactive) | 26.2 µM (inactive) | 44.9 µM (inactive) | > 88.3 µM (inactive) | 32.3 µM (inactive) | 65.6 µM (inactive) | > 70.3 µM (inactive) | 11 µM (inactive) | 37.2 µM (inactive) | 36 µM (inactive) | 35.2 µM (inactive) | 33.3 µM (inactive) | 27.7 µM (inactive) | 23.7 µM (inactive) | 55.5 µM (inactive) | 17.5 µM (inactive) | 47 µM |
| CCN(CC)C1=Nc2ccccc2-n2c(C)cnc2C1 | > 100 µM (inactive) | > 100 µM (inactive) | > 100 µM (inactive) | > 100 µM (inactive) | > 100 µM (inactive) | > 100 µM (inactive) | > 100 µM (inactive) | > 100 µM (inactive) | > 100 µM (inactive) | > 100 µM (inactive) | > 100 µM (inactive) | > 100 µM (inactive) | > 100 µM (inactive) | > 100 µM (inactive) | > 100 µM (inactive) | > 100 µM (inactive) | > 100 µM (inactive) | > 100 µM (inactive) | > 100 µM (inactive) | > 100 µM |
| CC1C(c2ccccc2)OP(=O)(OC(C#N)c2ccccc2)N1C (stereo not given) | > 100 µM (inactive) | 48.2 µM (inactive) | > 100 µM (inactive) | > 100 µM (inactive) | > 100 µM (inactive) | 48.4 µM (inactive) | > 100 µM (inactive) | > 100 µM (inactive) | > 100 µM (inactive) | > 100 µM (inactive) | > 100 µM (inactive) | 79.6 µM (inactive) | 27.6 µM (inactive) | > 100 µM (inactive) | > 100 µM (inactive) | > 100 µM (inactive) | 67.9 µM (inactive) | 29.2 µM (inactive) | > 100 µM (inactive) | > 100 µM |
| Nc1ccn(C=C=CCO)c(=O)n1 | > 100 µM (inactive) | > 100 µM (inactive) | > 100 µM (inactive) | > 100 µM (inactive) | > 100 µM (inactive) | > 78.5 µM (inactive) | > 100 µM (inactive) | > 100 µM (inactive) | > 100 µM (inactive) | > 100 µM (inactive) | > 100 µM (inactive) | > 100 µM (inactive) | 48.9 µM (inactive) | > 100 µM (inactive) | > 100 µM (inactive) | 229 µM (inactive) | > 100 µM (inactive) | 7.43 µM (inactive) | > 77.3 µM (inactive) | > 100 µM |
| CC(=O)OC1COC(n2nc(/C=C/c3ccc(Cl)cc3)c(=O)n(/N=C/c3ccccc3)c2=S)C(OC(C)=O)C1OC(C)=O (stereo not given) | > 100 µM (inactive) | > 100 µM (inactive) | > 100 µM (inactive) | > 100 µM (inactive) | > 100 µM (inactive) | > 100 µM (inactive) | > 100 µM (inactive) | > 100 µM (inactive) | > 100 µM (inactive) | > 100 µM (inactive) | > 100 µM (inactive) | > 100 µM (inactive) | > 100 µM (inactive) | > 100 µM (inactive) | > 100 µM (inactive) | > 100 µM (inactive) | > 100 µM (inactive) | > 100 µM (inactive) | > 100 µM (inactive) | > 100 µM |
| CC(=O)O[C@H]1[C@@H](OC2CCCC2(c2ccccc2)c2ccccc2)O[N+]([O-])=C[C@@]12COCc1cc3c(cc12)OCO3 (stereo not given in full) | 18.7 µM (inactive) | 4.17 µM (inactive) | 93.3 µM (inactive) | 4.6 µM (inactive) | 7.85 µM (inactive) | 3.25 µM (inactive) | 5.25 µM (inactive) | 7.06 µM (inactive) | 4.32 µM (inactive) | 6.32 µM (inactive) | 4.14 µM (inactive) | 2.72 µM (inactive) | 3.24 µM (inactive) | 13.2 µM (inactive) | 6.58 µM (inactive) | 4.24 µM (inactive) | 7.48 µM (inactive) | 2.83 µM (inactive) | 1.98 µM (inactive) | 6.37 µM |
| COc1ccc2[nH]c3c(C)c4ccnc(NCCCN(C)CCCN)c4c(C)c3c2c1 | 0.176 µM (active) | 0.336 µM (active) | 0.118 µM (active) | 0.178 µM (active) | 0.119 µM (active) | 0.159 µM (active) | 0.214 µM (active) | 0.091 µM (active) | 0.156 µM (active) | 0.196 µM (active) | 0.258 µM (active) | 0.198 µM (active) | 0.12 µM (active) | 0.202 µM (active) | 0.0596 µM (active) | 0.162 µM (active) | 0.0803 µM (active) | 0.0726 µM (active) | 0.0189 µM (active) | 0.258 µM |
| N#CC(NC12CC3CC(CC(C3)C1)C2)c1ccccc1 (stereo not given) | > 100 µM (inactive) | > 100 µM (inactive) | > 100 µM (inactive) | > 100 µM (inactive) | > 100 µM (inactive) | > 100 µM (inactive) | > 100 µM (inactive) | > 100 µM (inactive) | > 100 µM (inactive) | > 100 µM (inactive) | > 100 µM (inactive) | > 100 µM (inactive) | > 100 µM (inactive) | > 100 µM (inactive) | > 100 µM (inactive) | > 100 µM (inactive) | > 100 µM (inactive) | 20.8 µM (inactive) | > 100 µM (inactive) | > 100 µM |
